Six molecules from publication PMC8760323, “Single-chain tandem macrocyclic peptides as a scaffold for growth factor and cytokine mimetics” (Communications Biology, 2022) can be followed below.

As usually defined, the KD is the equilibrium constant for the complex coming apart. The low end stands for higher affinity, the high end for lower affinity. Broadly, the Kd is a measure of binding affinity in units of concentration.

Assay [1] deals with T1, human EPOR ectodomain-Fc (Homo sapiens, UniProt P19235).
T1 construct: human EPOR ectodomain-Fc; purchased R&D Systems
T1 sequence (P19235 25-250 limits assumed): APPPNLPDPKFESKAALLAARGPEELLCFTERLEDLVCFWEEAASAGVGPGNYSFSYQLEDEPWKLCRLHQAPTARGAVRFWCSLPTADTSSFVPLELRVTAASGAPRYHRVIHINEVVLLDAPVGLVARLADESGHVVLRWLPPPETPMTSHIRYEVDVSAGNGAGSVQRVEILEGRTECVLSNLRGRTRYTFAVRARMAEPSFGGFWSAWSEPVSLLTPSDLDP
In words: SPR analysis, human EPOR ectodomain. It counts as binding. The conditions noted are these: for binding against EPOR: exact dissociation constants not determinable, too slow dissociation. As for the experimental part: Binding constants of the STaMPtides and monomeric macrocyclic peptides to their corresponding receptor ectodomains were determined by SPR analysis using Biacore T200 (Cytiva). HBS-EP + buffer (Cytiva) containing 0.1% dimethyl sulfoxide (DMSO; Sigma-Aldrich, St. Louis, MO, USA) was used as the running buffer. As ligands, recombinant human Met ectodomain-Fc and human EPOR ectodomain-Fc were immobilized to around 1000 response units on CM5 sensor chips using a human antibody capture kit (Cytiva). STaMPtides and monomeric macrocyclic peptides were injected in five concentrations at a flow rate of 30 μL/min using a single-cycle kinetics method. Binding constants were quantified by analysis of the 1:1 binding model.
For orientation: In SPR one partner is held on a chip, and binding of the other changes the refractive index at the surface.

Assay [2] has as its target T2, EPOR (Homo sapiens, UniProt P19235).
T2 sequence (P19235 25-508): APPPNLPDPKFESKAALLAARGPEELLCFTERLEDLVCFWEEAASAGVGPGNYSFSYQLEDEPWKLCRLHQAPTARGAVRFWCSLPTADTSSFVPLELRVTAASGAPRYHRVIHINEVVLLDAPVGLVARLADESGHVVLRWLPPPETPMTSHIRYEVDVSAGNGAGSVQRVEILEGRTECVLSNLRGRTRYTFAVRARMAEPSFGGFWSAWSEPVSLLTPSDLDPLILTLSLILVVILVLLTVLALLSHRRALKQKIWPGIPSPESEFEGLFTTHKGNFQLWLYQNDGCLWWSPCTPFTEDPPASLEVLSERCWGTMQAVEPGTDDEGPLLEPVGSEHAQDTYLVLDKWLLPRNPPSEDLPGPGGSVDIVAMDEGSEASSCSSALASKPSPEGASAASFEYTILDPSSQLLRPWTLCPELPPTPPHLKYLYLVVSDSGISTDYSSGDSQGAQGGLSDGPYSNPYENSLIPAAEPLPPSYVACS
The experiment in a line: EPOR-JAK2 functional assay (PathHunter). It counts as cell-based. The following applies: for EPOR activation by serially diluted supernatants: decellularized supernatant; for EC50: purified, 3 h at room temperature, read-out: half-maximal effective concentration (EC50). As for the experimental part: Agonistic activity against EPOR was assessed using the PathHunter® eXpress EpoR-JAK2 Functional Assay Kit (DiscoverX) according to the manufacturer’s instructions. Briefly, cells were seeded on a 96-well cell culture plate and incubated overnight in 5% CO2 at 37 °C. […] The cells were lysed with a substrate reagent, and chemiluminescence was detected using a Nivo plate reader (PerkinElmer).

The target of assay [3] is T3, Recombinant human EPOR ectodomain-Fc (human, UniProt P19235 25-250).
T3 construct: erythropoietin receptor (EPOR), human, ectodomain; Captured on the chip with a human antibody capture kit, by its Fc; also called EPOR-Fc; rhEPOR ectodomain-Fc; source: bought: R&D Systems
T3 sequence (looked up): T1 sequence (P19235 25-250 limits assumed)
In words: SPR; Biacore T200; receptor ectodomain-Fc immobilised to around 1000 RU on CM5 chip by human antibody capture kit; peptides injected in five concentrations at 30 uL/min, single-cycle kinetics; HBS-EP+ buffer with 0.1% DMSO; 1:1 binding model; three runs (N 1-3) and their average.

The target of assay [4] is T3, Recombinant human EPOR ectodomain-Fc. In words: SPR; Biacore T200; receptor ectodomain-Fc immobilised to around 1000 RU on CM5 chips with a human antibody capture kit; peptides injected in five concentrations at 30 uL/min, single-cycle kinetics; HBS-EP+ buffer with 0.1% DMSO; 1:1 binding model; mean and SD of triplicate experiments. The conditions noted are these: both partners purified.

The subject of assay [5] is hPBMCs. In words: Colony-forming assay. It counts as cell-based, human. The conditions noted are these: at doses of 33 ng/mL or higher, 13 days. As for the experimental part:
Next, 1.1 mL of the mixture was seeded in a 6-well cell culture plate and cultured for 13 days in 5% CO2 at 37 °C. At day 13, colony numbers were counted, and images were taken by inverted microscopy and BZ-X fluorescence microscopy.

Positions of bridges follow the written chain, without caps; N, C: chain ends. No end group written: not given here.

With `CSCC[C@@H]1NC(=O)[C@H](Cc2c[nH]cn2)NC(=O)[C@@H](NC(=O)[C@H](C)NC(=O)[C@H](Cc2ccc(O)cc2)NC(=O)[C@H](CC(C)C)NC(=O)CNC(=O)CN)CSSC[C@@H](C(=O)N[C@@H](CCC(N)=O)C(=O)N2CCC[C@H]2C(=O)N[C@@H](CC(C)C)C(=O)N[C@@H](CCCNC(=N)N)C(=O)NCC(=O)O)NC(=O)[C@H](C(C)C)NC(=O)[C@H](Cc2c[nH]c3ccccc23)NC(=O)[C@H]([C@@H](C)O)NC(=O)[C@H](CCSC)NC(=O)[C@@H]2CCCN2C(=O)CNC1=O` [EMP35, reference compound], the kd came out at 1e-05 M⁻¹ s⁻¹ in assay [1] (Table S1, Average of N 1-3); 1e-05 M⁻¹ s⁻¹ in assay [1] (Table S1, N 1); 1e-05 M⁻¹ s⁻¹ in assay [1] (Table S1, N 2); 1e-05 M⁻¹ s⁻¹ in assay [1] (Table S1, N 3). Besides, the dissociation constant (KD) in assay [1] (Table S1, N 1) was 0.089 nM; in assay [1] (Table S1, N 2), 0.15 nM; in assay [1] (Table S1, N 3) it was 1.3 nM. For the same molecule, the “binding against EPOR” value in assay [1] is “strong binding potency”. Further, in assay [2], the “agonist potency weaker than STaMPtides” value is reported as ~ 1000 times.

With “AETGGLYACHMGPMTWVCQPLRGAAPAAPAPGGLYACHMGPMTWVCQPLRG (disulfide 9-18, 37-46) [EMP-PA8]”, in assay [1], the “association rate higher than that of EMP35” value is 5–10 times and the “binding against EPOR” value is listed as “strong binding potency”. In assay [1] (Table S1, Average of N 1-3), this molecule came in with a Kd of 0.03 nM and a kd of 1e-05 M⁻¹ s⁻¹. In assay [1] (Table S1, N 1), the KD came to 0.034 nM and the kd amounted to 1e-05 M⁻¹ s⁻¹. In assay [1] (Table S1, N 2), this molecule registered a KD of 0.026 nM and a kd of 1e-05 M⁻¹ s⁻¹. In assay [1] (Table S1, N 3), this molecule gave a KD of 0.03 nM and a kd of 1e-05 M⁻¹ s⁻¹. In addition, in assay [2], the “EPOR activation by serially diluted supernatants” value is reported as “activated EPOR, even at high dilutions” and the EC50 was 0.022 nM.

B1: EMP35 (peptide)
peptide: GGLYACHMGPMTWVCQPLRG
modifications: disulfide 6-15
notes: also called EMP35 (Monomer); monomeric EMP35; source: synthetic peptide (GenScript Japan)
As to B1, the Kd in assay [3] was < 0.0887 nM; in assay [4] it was < 0.5 nM.

B2: EMP-PA22 (designed binder)
chain: AETGGLYACHMGPMTWVCQPLRGAAPAAPAPAAPAAPAPAAPAAPGGLYACHMGPMTWVCQPLRG
modifications: disulfide 9-18, 51-60 (inferred)
notes: Expressed with the CspB signal peptide of C. glutamicum ATCC13869; also called EMP-PA22 (STaMPtide); EPO mimetic STaMPtide; source: C. glutamicum YPS010, secreted into the supernatant, purified (RP-HPLC)
For B2, the Kd is < 0.0104 nM in assay [3] and < 0.013 nM in assay [4].

B3: EMP-PA22: EPO mimetic STaMPtide, EMP35 dimerized with 22-amino-acid PA linker (peptide)
chain: B2 chain
modifications: disulfide 9-18, 51-60 (inferred)
With B3, the “association rate higher than that of EMP35” value in assay [1] is given as 5–10 times. The kd was 1e-05 M⁻¹ s⁻¹ in assay [1] (Table S1, Average of N 1-3); 1e-05 M⁻¹ s⁻¹ in assay [1] (Table S1, N 1); 1e-05 M⁻¹ s⁻¹ in assay [1] (Table S1, N 2); 1e-05 M⁻¹ s⁻¹ in assay [1] (Table S1, N 3). Besides, the equilibrium dissociation constant (KD) in assay [1] (Table S1, N 1) is 0.014 nM; in assay [1] (Table S1, N 2), 0.015 nM; in assay [1] (Table S1, N 3), 0.01 nM. Further, in assay [1], the “binding against EPOR” value was “strong binding potency”. The “EPOR activation by serially diluted supernatants” value in assay [2] is listed as “activated EPOR, even at high dilutions”. In addition, in assay [2], the EC50 came to 0.22 nM. The “erythroid colony formation efficiency” value in assay [5] is on record as “equivalent to or higher than that of 10 ng/mL of rhEPO”.

B4: EMP-PA8 (designed binder)
chain: AETGGLYACHMGPMTWVCQPLRGAAPAAPAPGGLYACHMGPMTWVCQPLRG
modifications: disulfide 9-18, 37-46 (inferred)
notes: Expressed with the CspB signal peptide of C. glutamicum ATCC13869; also called EMP-PA8 (STaMPtide); EPO mimetic STaMPtide; source: C. glutamicum YPS010, secreted into the supernatant, purified (RP-HPLC)
Consider B4, for which the Kd in assay [3] is < 0.0257 nM; in assay [4], < 0.03 nM.
